Measurements reported in patent US10253185B2, “Fluorogenic pH-sensitive dyes and their methods of use (II)” (LIFE TECHNOLOGIES CORPORATION, priority 2012, dated 2019).

Assays:
cells = assay: Intracellular pH response of dye-loaded cells under perfusion with pH standards (nigericin/valinomycin); format: cell-based; details: 5 μM loading; potassium LCIS pH standards 7.4, 7.2, 6.5, 6.0; nigericin and valinomycin 10 μM each
Experimental: 10 mL loading buffer, Compound (4): 10 μL Compound (4) from a 5 mM DMSO stock was added to 100 μL Powerload and mixed. 10 mL LCIS was added to this solution for final concentration of Compound (4) of 5 μM.
Cells were cultured on 35 mm MatTek glass bottom dishes. For loading, cells were rinsed 1× with LCIS and replaced with loading buffer described above. Cells were incubated at 37° C. for 60 minutes, then rinsed 2× with LCIS and imaged with standard TRITC or FITC filter sets. (see FIG. 5).
Cells were cultured and loaded as described above with Compound (4). This solution was removed from the cells and replaced with potassium LCIS pH 7.4 standard and imaging experiments begun with cells under constant perfusion by potassium LCIS pH standards of pH 7.4, 7.2, 6.5, and 6.0. […] (Nigericin and valinomycin added at 10 μM each from DMSO stock.) Images of Compound (4) AM loaded cells at pH 7.4 and 6.0 are shown in FIG. 6. Functional kinetic responses from individually selected cells in the sample are shown in FIG. 7 as the pH was changed from 7.4 to 6.0 and back.

[1] = tested on: J774.2 murine macrophages; assay: No-wash phagocytosis assay with E. coli bioparticles conjugated to pH-sensitive dye; format: cell-based; details: E. coli bioparticle-dye conjugates, J774.2 macrophages
Text: Certain embodiments provide a no-wash, no-quench assay for phagocytosis that is based on fluorogenic bioparticles comprising the pH-sensitive fluorescent dye compounds provided herein. Current protocols for measuring phagocytosis that use fluorescent bioparticles, require a trypan blue quenching step and several washing steps. These steps can introduce significant variability in the assay. To address this issue, provided herein is a no-wash phagocytosis kit, using E. coli bioparticles conjugated to a pH-sensitive fluorescent dye as described herein. These bioparticle conjugates are weakly fluorescent at extracellular pH. […] The pH-sensitive fluorescent bioparticles described herein may be used in plate based, as well as imaging and flow cytometry assays of phagocytosis.

Row | Compound | signal from the dye inside of the cells as external pH changed (cells) | uptake of the bioparticles (phagocytosis) [1]
1 | CCN(CCCC(=O)NCCCCC(C(=O)OCOC(C)=O)N(CC(=O)OCOC(C)=O)CC(=O)OCOC(C)=O)c1cc(OC)c(-c2c3ccc(=[N+](C)C)cc-3oc3cc(N(C)C)ccc23)cc1N(C)C (centres unmarked) [Compound (4), N-(9-(4-((8-(2-(acetoxymethoxy)-2-oxoethyl)-9-((acetoxymethoxy)carbonyl)-2,6,15-trioxo-3,5-dioxa-8,14-diazaoctadecan-18-yl)(ethyl)amino)-5-(dimethylamino)-2-methoxyphenyl)-6-(dimethylamino)-3H-xanthen-3-ylidene)-N-methylmethanaminium] | the signal from the dye inside of the cells changed | 
2 | cytochalaisin D |  | potently inhibited
